# Test results reported in patent US5599825A, “Water-soluble methine compound and pharmaceutical composition for treatment of cancer comprising the same” (Fuji Photo Film Co., Ltd., priority 1994, dated 1997).
# What was measured:
# [1] = Solubility test 1: 5 mg in 5 ml ion-exchanged water, macroscopic (1 mg/ml); type: physicochemical; conditions: room temperature; for Solubility 1 mg/mL: 5 minutes shaking; for dissolution in the above-described solubility tests: summary in words
# Protocol: (§1) The solubility tests were conducted by the following methods of tests 1 and 2:
# 5 mg of a methine compound is fed into a test tube, to which 5 ml of ion-exchanged water is added, the resultant mixture is shaken at room temperature for 5 minutes, and the solubility thereof is macroscopically confirmed (1 mg/ml solution).
# [2] = Solubility test 2: 5 mg in 0.5 ml ion-exchanged water, macroscopic (10 mg/ml); type: physicochemical; conditions: room temperature, 5 minutes shaking
# Protocol: as §1
# 5 mg of a methine compound is fed into a test tube, to which 0.5 ml of ion-exchanged water is added, the resultant mixture is shaken at room temperature for 5 minutes, and the solubility thereof is macroscopically confirmed (10 mg/ml solution).
# [3] = Solubility in 5% glucose solution for injection, macroscopic (10 mg/ml); type: physicochemical; conditions: room temperature, 5 minutes shaking
# Protocol: The solubility of each of the compounds of the present invention synthesized in Example 1 in 5% glucose solution for injection was examined.
# 5 mg of a methine compound was fed into a test tube, to which 0.5 ml of 5% glucose solution for injection was added, the resultant mixture was shaken at room temperature for 5 minutes, and the solubility thereof was macroscopically confirmed (10 mg/ml solution).
# [4] = system: human colonic epithelial carcinoma LS174T; test: Activity against human colonic epithelial carcinoma LS174T in nude mouse (tumor inhibition); type: in vivo, human (transplanted in BALB/C nu/nu mice); conditions: i.v.
# Protocol: Activity of the present pharmaceutical compositions against human colonic epithelial carcinoma LS174T was determined by use of nude mouse as follows:
# As the human colonic epithelial carcinoma cell lines LS174T, there was used the established line by trypsinizing piece of LS174T obtained from the operating theatre of the original adenocarcinoma of colon in such that the piece becomes suitable for cultivation. When this cultured cells LS174T are hypodermically injected to a nude mouse, the cells can be easily grown in the body of the nude mouse as a moderately to sufficiently differentiated human colonic epithelial carcinoma. The cells LS174T produce CEA in high level and can proliferate in hamster cheek pouches or immunodeprived mice, so that it has been proven that the cells LS174T have neoplastic properties.
# BALB/C nu/nu mice (male, five weeks age) available from Charles River Japan Inc. were placed in an atmosphere having no pathogen. Tumors formed by the hypodermic injection of human colonic epithelial carcinoma cell lines LS174T into the mice were cut off under the aseptic condition, and the surrounding skin and connective tissue of the tumor tissues as well as the necrotic tissue located in the center of the tumor tissues were removed. The tumor tissues were Cut in the form of 3-5 mm square, and the resulting one tissue was charged into a needle for transplantation to hypodermically transplant it into the mouse. The resulting mice were randomly divided into control group (six mice) and treating group (six mice). The intravenous administration of the pharmaceutical composition into the treating group started next day. The amount and schedule of the administration were determined based on the experience, mainly the knowledge from the pretoxic-test data of LD 50 and LD 10.5% glucose solution or physiologic saline for injection was injected to the control group in the same amount as that to be intravenously injected to the treating group.
# The pharmaceutical composition was dissolved in 5% glucose solution or physiologic saline for injection in such that the amount of the pharmaceutical composition contained in the glucose solution or physiologic saline is 5 ml per one kg of weight of the mouse to be injected so as to prepare an injection liquid. When the proliferation of tumor in the control group reached exponential growth phase and the size of the tumor became detectable by touch with hand, i.e., generally three weeks after the transplantation, the experiment was stopped. Then the tumor of each mouse was cut off and the weight of the resulting tumor was measured by use of chemical balance. Regarding each group, tumor inhibition percentage between the treating group and control group was calculated.
# [5] = system: LOX, a human melanoma cell line; test: Nude mice bearing human melanoma LOX (survival); type: in vivo, human (in male athymic Swiss nu/nu mouse); conditions: i.p.
# Protocol: Nude Mice Bearing Human Melanoma as a Model System
# LOX, a human melanoma cell line, grown subcutaneously in nude mice was excised, trypsinized to yield a single cell suspension using a metal grid with a […]. Red blood cells were lysed by incubation with 0.17 molar ammonium chloride at 4° C. for 20 minutes. Five million viable trypan blue negative cells made up in 0.1 ml of Dulbecco modified Eagles' medium (DME) were injected into the peritoneal cavity of a male athymic Swiss nu/nu mouse. The control group and each treatment group consisted of 5 to 10 mice. Treatment was commenced the following day by intraperitoneal injection.
# Ten control mice received 0.25 ml of 2% dextrose on those days the treated groups were injected with the compounds of this invention. The compounds of the General Formulas (I) to (II) used in this invention which were tested are listed in Table 6 below and the results obtained are shown in Table 6 of the accompanying drawings. T/C is the ratio, expressed as a percentage of the mean survival age of the treated group to the mean survival age of the untreated control group.
Solubility 1 mg/mL [1],Solubility 10 mg/mL [2],Solubility 10 mg/mL [3],Structure (SMILES),further results
soluble,suspension,,CCn1c(=Cc2sc3c4ccccc4ccc3[n+]2CCOCCOCCOC)sc(=C2Sc3ccc4ccccc4c3N2C)c1=O [Compound 1-5],
suspension,suspension,suspension,"CCn1c(=Cc2sc3ccccc3[n+]2CCOCCO)sc(=C2Sc3ccc4ccccc4c3N2C)c1=O [Compound S-3, reference compound]",dissolution in the above-described solubility tests [1]: not dissolved
soluble,soluble,soluble,CCn1c(=Cc2sc3ccccc3[n+]2CCOCCOCCOCCOC)sc(=C2Sc3ccc4ccccc4c3N2C)c1=O [Compound 1-4],"Tumor Inhibition Ratio ([4]; 5 mg/kg days 1, 3, 7.5 mg/kg day 6, 10 mg/kg days 8, 10, 12.5 mg/kg days 13, 15, 17): 71.5%"
soluble,soluble,soluble,CCn1c(=Cc2sc3ccccc3[n+]2CCOCCOCCOC)sc(=C2Oc3ccc4ccccc4c3N2C)c1=O [Compound 1-10],
suspension,suspension,suspension,"CCn1c(=Cc2sc3ccccc3[n+]2CCOC)sc(=C2Sc3ccc4ccccc4c3N2C)c1=O [Compound S-2, reference compound]",dissolution in the above-described solubility tests [1]: not dissolved
soluble,soluble,,"CCn1c(=Cc2sc3ccccc3[n+]2CC)sc(=C2Sc3c(ccc4ccccc34)N2CCOCCOCCOC)c1=O [Compound 1-6, 3-ethyl-2-{[3-ethyl-5-(3-methoxyethoxyethoxyethylnaphtho[2,1-d]thiazolin-2-ylidene)]-4-oxothiazolidin-2-ylidenemethyl}benzothiazolium=chloride]",
suspension,suspension,suspension,"CCn1c(=Cc2sc3ccccc3[n+]2CC)sc(=C2Sc3ccc4ccccc4c3N2C)c1=O [Compound S-1, reference compound]",dissolution in the above-described solubility tests [1]: not dissolved
soluble,suspension,soluble,CCn1c(=Cc2sc3c4ccccc4ccc3[n+]2CCOCCOCCOC)sc(=CC=C2Sc3ccc4ccccc4c3N2C)c1=O [Compound 1-16],
soluble,suspension,soluble,CCn1c(=Cc2sc3ccccc3[n+]2CCOCCOCCOC)sc(=C2Sc3c(ccc4ccccc34)N2C)c1=O [Compound 1-8],
soluble,soluble,soluble,CCN1C(=O)C(=C2Sc3ccc4ccccc4c3N2C)SC1=Nc1scc[n+]1CCOCCOCCOC [Compound 1-15],"Tumor Inhibition Ratio ([4]; 10 mg/kg days 1, 3, 6, 8, 10, 13, 15, 20): 60.0%"
soluble,soluble,soluble,CCn1c(=Cc2sc3c4ccccc4ccc3[n+]2CCOCCOCCOC)sc(=C2SCCN2C)c1=O [Compound 1-14],

Structure (SMILES),Solubility 1 mg/mL [1],Solubility 10 mg/mL [2],Solubility 10 mg/mL [3],further results
CCn1c(=Cc2sc3ccccc3[n+]2CCOCCOCCOC)sc(=C2Sc3ccc(OC)cc3N2C)c1=O [Compound 1-13],soluble,soluble,soluble,"Tumor Inhibition Ratio ([4]; 20 mg/kg days 1, 3, 7, 11, 16, 18, 25 mg/kg day 9): 45.2%; T/C (mean survival age of treated group to untreated control group) ([5]; 5 mg/kg day 1, 7.5 mg/kg days 2, 5, 10 mg/kg days 7, 9, 13, 15): 124%"
CCn1c(=Cc2sc3ccccc3[n+]2CCOCCOCCOC)sc(=C2Sc3ccccc3N2C)c1=O [Compound 1-12],soluble,soluble,soluble,"T/C (mean survival age of treated group to untreated control group) ([5]; 5 mg/kg day 1, 10 mg/kg days 2, 5, 7, 9, 13, 15): 124%"
"CC[n+]1c(C=c2sc(=C3Sc4c(ccc5ccccc45)N3C)c(=O)n2CCOCCOCCOC)sc2ccccc21 [Compound 1-7, 3-ethyl-2-{[3-methoxyethoxyethoxyethyl-5-(3-methylnaphtho[2,1-d]thiazolin-2-ylidene)]-4-oxothiazolidin-2-ylidenemethyl}benzothiazolium=chloride]",soluble,soluble,soluble,"Tumor Inhibition Ratio ([4]; 5 mg/kg days 1, 17, 7.5 mg/kg day 3, 10 mg/kg days 6, 8, 10, 13): 83.0%; T/C (mean survival age of treated group to untreated control group) ([5]; 5 mg/kg days 1, 9, 15, 10 mg/kg days 2, 5, 7, 13): 129%"
CCn1c(=Cc2sc3ccccc3[n+]2CCOCCOCCOC)sc(=C2Sc3ccc4ccccc4c3N2C)c1=O [Compound 1-3],soluble,soluble,soluble,"Tumor Inhibition Ratio ([4]; 5 mg/kg day 1, 10 mg/kg days 3, 7, 13 mg/kg days 9, 13, 15, 17): 51.1%; T/C (mean survival age of treated group to untreated control group) ([5]; 7.5 mg/kg days 1, 2, 5, 7, 9, 13, 15, 20): 153%"
"CCn1c(=Cc2sc3c4ccccc4ccc3[n+]2CCOCCOCCOC)sc(=C2Sc3ccccc3N2C)c1=O [Compound 1-11, 3-methoxyethoxyethoxyethyl-2-{[3-ethyl-5-(3-methylbenzothiazolin-2-ylidene)]-4-oxothiazolidin-2-ylidenemethyl}naphtho[2,1-d]thiazolium=chloride]",soluble,soluble,soluble,"Tumor Inhibition Ratio ([4]; 8 mg/kg day 1, 10 mg/kg days 3, 6, 8, 10, 15, 17): 67.9%; T/C (mean survival age of treated group to untreated control group) ([5]; 5 mg/kg days 1, 15, 10 mg/kg days 2, 5, 7, 13, 15 mg/kg day 9): 129%"
"CCn1c(=Cc2sc3ccccc3[n+]2CCC2OCCCO2)sc(=C2Sc3ccc4ccccc4c3N2C)c1=O [Compound 1-9, 3-(1,3-dioxane-2-ethyl)-2-{[3-ethyl-5-(3-methylnaphtho[1,2-d]thiazolin-2-ylidene)]-4-oxothiazolidin-2-ylidenemethyl}benzothiazolium=chloride]",soluble,suspension,,"Tumor Inhibition Ratio ([4]; 3 mg/kg days 1, 4, 7, 1 mg/kg days 9, 11, 13, 18): 65.6%; T/C (mean survival age of treated group to untreated control group) ([5]; 5 mg/kg days 1, 13, 15, 10 mg/kg days 2, 5, 7, 15 mg/kg day 9): 153%"
